This assay has as its target complex between DNA gyrase and pBR322 DNA (Staphylococcus aureus, UniProt P0A0K8+P20831). Kind of assay: Binding assay demonstrating ternary complex formation (SEC with HPLC/MS detection). On the set-up: species or system S. aureus. The text has this: The above-defined compounds are an exemplary class of compounds, which display the attributes of the claimed compounds of this invention, that is, they act primarily by inhibition of topoisomerase. While the compounds and methods of the invention are directed to eukaryotic, particularly mammalian topoisomerase inhibition, bacterial DNA gyrase was used to illustrate the mechanism of action. The evidence, provided by bacterial enzyme, for such biological activity includes the fact that selective resistance to the compounds is associated with point mutations in Staphylococcus aureus GyrA and B subunits. Further, Escherichia coli and S. aureus DNA gyrase supercoiling activity is inhibited in vitro by the compounds. A ternary complex has been isolated which is composed of pBR322 relaxed circular DNA, S. aureus DNA gyrase, and test compounds. […] The compounds of the invention also show antagonism of ciprofloxacin-induced cleavage of linear DNA.
An excess of test compound is added, typically as a mixture of three ligands, and after incubation the excess compound is separated from the resulting DNA:gyrase complex using size exclusion chromatography (SEC), with reverse phase HPLC and on-line MS detection to identify and quantify the bound compound.

The structures appear in SMILES notation.

Sequence of complex between DNA gyrase and pBR322 DNA (P20831 whole entry): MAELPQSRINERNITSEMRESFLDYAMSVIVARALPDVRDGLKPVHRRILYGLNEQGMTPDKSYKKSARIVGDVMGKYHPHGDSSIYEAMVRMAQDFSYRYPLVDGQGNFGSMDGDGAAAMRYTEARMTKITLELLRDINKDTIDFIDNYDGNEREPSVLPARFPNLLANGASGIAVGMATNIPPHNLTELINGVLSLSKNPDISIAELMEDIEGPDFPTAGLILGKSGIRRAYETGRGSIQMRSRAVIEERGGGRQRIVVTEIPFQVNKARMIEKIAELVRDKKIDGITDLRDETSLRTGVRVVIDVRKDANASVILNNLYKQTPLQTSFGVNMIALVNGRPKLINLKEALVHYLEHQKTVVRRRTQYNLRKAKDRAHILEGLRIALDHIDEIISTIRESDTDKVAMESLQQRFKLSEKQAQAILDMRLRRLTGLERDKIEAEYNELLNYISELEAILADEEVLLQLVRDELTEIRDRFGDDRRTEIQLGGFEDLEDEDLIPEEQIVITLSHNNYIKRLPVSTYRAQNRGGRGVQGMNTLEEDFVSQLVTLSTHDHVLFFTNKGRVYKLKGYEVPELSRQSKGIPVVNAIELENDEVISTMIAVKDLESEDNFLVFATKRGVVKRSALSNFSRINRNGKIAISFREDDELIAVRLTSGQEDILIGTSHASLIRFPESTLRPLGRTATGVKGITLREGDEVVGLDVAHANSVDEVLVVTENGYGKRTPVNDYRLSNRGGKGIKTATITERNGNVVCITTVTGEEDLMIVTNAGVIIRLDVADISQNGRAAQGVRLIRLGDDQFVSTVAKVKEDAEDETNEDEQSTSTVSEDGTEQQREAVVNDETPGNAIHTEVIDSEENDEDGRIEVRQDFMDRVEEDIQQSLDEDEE
Sequence of complex between DNA gyrase and pBR322 DNA (P0A0K8 whole entry): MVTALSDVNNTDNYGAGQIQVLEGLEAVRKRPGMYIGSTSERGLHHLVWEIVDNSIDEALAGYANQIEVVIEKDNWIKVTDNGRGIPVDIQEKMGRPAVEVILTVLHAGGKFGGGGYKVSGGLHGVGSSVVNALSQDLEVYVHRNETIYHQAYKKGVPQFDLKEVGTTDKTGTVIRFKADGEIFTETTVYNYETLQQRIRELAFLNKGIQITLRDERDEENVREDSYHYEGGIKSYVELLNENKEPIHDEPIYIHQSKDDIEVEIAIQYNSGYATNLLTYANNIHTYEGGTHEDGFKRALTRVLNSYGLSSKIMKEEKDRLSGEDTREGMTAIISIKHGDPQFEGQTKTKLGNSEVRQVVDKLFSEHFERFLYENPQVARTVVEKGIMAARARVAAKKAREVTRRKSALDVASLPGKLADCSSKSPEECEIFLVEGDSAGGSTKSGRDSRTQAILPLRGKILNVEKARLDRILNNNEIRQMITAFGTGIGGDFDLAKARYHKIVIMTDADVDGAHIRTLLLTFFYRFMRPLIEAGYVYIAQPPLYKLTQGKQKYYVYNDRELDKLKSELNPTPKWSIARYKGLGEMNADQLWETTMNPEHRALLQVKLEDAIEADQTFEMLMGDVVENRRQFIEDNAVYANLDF

For `CCCCCCCN1CCN(C[C@H](O)c2ccnc3ccc(OC)cc23)C[C@H]1CO.O=C(O)C(=O)O.O=C(O)C(=O)O` [SB366676-AY, [2S]-1-Heptyl-4-[2-(R)-hydroxy-2-(6methoxyquinolin-4-yl)ethyl]-2-hydroxymethylpiperazine dioxalate], the “detection in the high molecular weight fraction on the SEC column” value (DNA gyrase + pBR322 DNA, clear resolution from excess ligand) is given as “detected in the high molecular weight fraction”. Moreover, where the note is “in the presence of SB369890 and BRL26172CC”, the “binding detected in mixture of ligands” value is recorded as “Only binding of SB366676-AY”. For the same compound, the “stoichiometry: molecules bound to each gyrase:DNA complex” value (stoichiometry studies) was “two”.

For the origin of these results see patent US6803369B1, “Compounds and methods for the treatment of neoplastic disease” (priority 2000, dated 2004).
